IC50 data for 16 compounds are collected here from patent publication US11759462B2, “Spirocyclic compounds as tryptophan hydroxylase inhibitors” (priority 2013, dated 2023).

Like-named read-outs stand apart in the source and are kept apart here.

The target in this assay is T1, Recombinant human TPH1 (MBP tagged) (Homo sapiens, UniProt P17752).
T1 construct: cloning full length human TPH1 cDNA in to a bacterial pMAL-c5E expression vector; made in house; host or cells: E. coli BL21 (DE3)
T1 sequence (P17752 1-444): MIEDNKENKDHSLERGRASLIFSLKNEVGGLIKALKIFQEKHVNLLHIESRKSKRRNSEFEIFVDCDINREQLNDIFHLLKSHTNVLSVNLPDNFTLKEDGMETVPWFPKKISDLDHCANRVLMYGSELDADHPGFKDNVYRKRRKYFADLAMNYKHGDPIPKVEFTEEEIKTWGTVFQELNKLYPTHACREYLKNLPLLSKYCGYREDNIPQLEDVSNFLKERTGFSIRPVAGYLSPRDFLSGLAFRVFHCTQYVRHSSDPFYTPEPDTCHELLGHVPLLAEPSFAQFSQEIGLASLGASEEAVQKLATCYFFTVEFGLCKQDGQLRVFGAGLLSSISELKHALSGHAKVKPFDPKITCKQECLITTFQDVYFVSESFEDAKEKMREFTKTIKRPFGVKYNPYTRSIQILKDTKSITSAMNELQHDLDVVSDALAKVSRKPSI
Kind of assay: TPH1 in vitro inhibition assay (kinetic fluorescence). In kind it is biochemical. The essentials:
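Final mix: 15 nM MBP-TPH1, 30 μM Trp, 36 μM 6-methyltetrahydropterin, 25 μM ferrous ammonium sulfate, 50 mM MES pH 7.1, 1% DMSO, room temperature.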

The mark [1] stands for this setting: read-out: TPH1 Range (TPH1 inhibition IC50).
[2] abbreviates: TPH1 Range (TPH1 inhibition IC50).

Broadly, the IC50 is the concentration needed to halve the response being measured. With `COc1ncccc1-c1ccc([C@@H](Oc2cc(N3CCC4(CC3)CN[C@H](C(=O)O)C4)nc(C)n2)C(F)(F)F)c(-n2ccc(C)n2)c1` [Example 29k, (S)-8-(2-methyl-6-((R)-2,2,2-trifluoro-1-(4-(2-methoxypyridin-3-yl)-2-(3-methyl-1H-pyrazol-1-yl)phenyl)ethoxy)pyrimidin-4-yl)-2,8-diazaspiro[4.5]decane-3-carboxylic acid], under setting [1], the half-maximal inhibitory concentration (IC50) lay in the range of 50 to 300 nM.
On to `COc1ccc(-c2ccc([C@@H](Oc3cc(N4CCC5(CC4)CN[C@H](C(=O)O)C5)nc(C)n3)C(F)(F)F)c(-n3ccc(C)n3)c2)cc1F` [Example 29l, (S)-8-(2-methyl-6-((R)-2,2,2-trifluoro-1-(3′-fluoro-4′-methoxy-3-(3-methyl-1H-pyrazol-1-yl)-[1,1′-biphenyl]-4-yl)ethoxy)pyrimidin-4-yl)-2,8-diazaspiro[4.5]decane-3-carboxylic acid], for which, under setting [1], the half-maximal inhibitory concentration (IC50) was < 50 nM.
In the case of `Cc1ccn(-c2cc(-c3cccc(C(=O)N(C)C)c3)ccc2[C@@H](Oc2cc(N3CCC4(CC3)CN[C@H](C(=O)O)C4)nc(C)n2)C(F)(F)F)n1` [Example 29m, (S)-8-(6-((R)-1-(3′-(dimethylcarbamoyl)-3-(3-methyl-1H-pyrazol-1-yl)-[1,1′-biphenyl]-4-yl)-2,2,2-trifluoroethoxy)-2-methylpyrimidin-4-yl)-2,8-diazaspiro[4.5]decane-3-carboxylic acid], under setting [1], the IC50 lay in the range of 50 to 300 nM.
Still for that read-out and setting: in the case of `Cc1cc(C)c(-c2ccc([C@@H](Oc3cc(N4CCC5(CC4)CN[C@H](C(=O)O)C5)nc(C)n3)C(F)(F)F)c(-n3ccc(C)n3)c2)c(C)c1` [Example 29n, (S)-8-(2-methyl-6-((R)-2,2,2-trifluoro-1-(2′,4′,6′-trimethyl-3-(3-methyl-1H-pyrazol-1-yl)-[1,1′-biphenyl]-4-yl)ethoxy)pyrimidin-4-yl)-2,8-diazaspiro[4.5]decane-3-carboxylic acid] it was 50 to 300 nM; in that of `Cc1ccn(-c2cc(-c3ccc(OC(C)C)cc3)ccc2[C@@H](Oc2cc(N3CCC4(CC3)CN[C@H](C(=O)O)C4)nc(C)n2)C(F)(F)F)n1` [Example 29o, (S)-8-(2-methyl-6-((R)-2,2,2-trifluoro-1-(4′-isopropoxy-3-(3-methyl-1H-pyrazol-1-yl)-[1,1′-biphenyl]-4-yl)ethoxy)pyrimidin-4-yl)-2,8-diazaspiro[4.5]decane-3-carboxylic acid], < 50 nM.
Same read-out and setting: the value for `COc1ccccc1-c1ccc([C@@H](Oc2cc(N3CCC4(CC3)CN[C@H](C(=O)O)C4)nc(C)n2)C(F)(F)F)c(-n2ccc(C)n2)c1` [Example 29p, (S)-8-(2-methyl-6-((R)-2,2,2-trifluoro-1-(2′-methoxy-3-(3-methyl-1H-pyrazol-1-yl)-[1,1′-biphenyl]-4-yl)ethoxy)pyrimidin-4-yl)-2,8-diazaspiro[4.5]decane-3-carboxylic acid] was < 50 nM; that for `COC(=O)c1ccc(-c2ccc([C@@H](Oc3cc(N4CCC5(CC4)CN[C@H](C(=O)O)C5)nc(C)n3)C(F)(F)F)c(-n3ccc(C)n3)c2)cc1OC` [Example 29q, (S)-8-(2-methyl-6-((R)-2,2,2-trifluoro-1-(3′-methoxy-4′-(methoxycarbonyl)-3-(3-methyl-1H-pyrazol-1-yl)-[1,1′-biphenyl]-4-yl)ethoxy)pyrimidin-4-yl)-2,8-diazaspiro[4.5]decane-3-carboxylic acid] was < 50 nM.
`Cc1ccn(-c2cc(-c3ccc(C(C)(C)C)cc3)ccc2[C@@H](Oc2cc(N3CCC4(CC3)CN[C@H](C(=O)O)C4)nc(C)n2)C(F)(F)F)n1` [Example 29r, (S)-8-(6-((R)-1-(4′-(tert-butyl)-3-(3-methyl-1H-pyrazol-1-yl)-[1,1′-biphenyl]-4-yl)-2,2,2-trifluoroethoxy)-2-methylpyrimidin-4-yl)-2,8-diazaspiro[4.5]decane-3-carboxylic acid]: the IC50 under setting [1] was < 50 nM.
With `CCOc1ccc(-c2ccc([C@@H](Oc3cc(N4CCC5(CC4)CN[C@H](C(=O)O)C5)nc(C)n3)C(F)(F)F)c(-n3ccc(C)n3)c2)cc1` [Example 29s, (S)-8-(6-((R)-1-(4′-ethoxy-3-(3-methyl-1H-pyrazol-1-yl)-[1,1′-biphenyl]-4-yl)-2,2,2-trifluoroethoxy)-2-methylpyrimidin-4-yl)-2,8-diazaspiro[4.5]decane-3-carboxylic acid], the half-maximal inhibitory concentration (IC50) under setting [1] is < 50 nM.
For the compound `Cc1ccn(-c2cc(-c3ccc(OC(F)(F)F)cc3)ccc2[C@@H](Oc2cc(N3CCC4(CC3)CN[C@H](C(=O)O)C4)nc(C)n2)C(F)(F)F)n1` [Example 29t, (S)-8-(2-methyl-6-((R)-2,2,2-trifluoro-1-(3-(3-methyl-1H-pyrazol-1-yl)-4′-(trifluoromethoxy)-[1,1′-biphenyl]-4-yl)ethoxy)pyrimidin-4-yl)-2,8-diazaspiro[4.5]decane-3-carboxylic acid], under setting [1], the concentration for half-maximal inhibition (IC50) is 50 to 300 nM.
On the same count and under the same terms, in the case of `COC(=O)c1cccc(-c2ccc([C@@H](Oc3cc(N4CCC5(CC4)CN[C@H](C(=O)O)C5)nc(C)n3)C(F)(F)F)c(-n3ccc(C)n3)c2)c1` [Example 29u, (S)-8-(2-methyl-6-((R)-2,2,2-trifluoro-1-(3′-(methoxycarbonyl)-3-(3-methyl-1H-pyrazol-1-yl)-[1,1′-biphenyl]-4-yl)ethoxy)pyrimidin-4-yl)-2,8-diazaspiro[4.5]decane-3-carboxylic acid] it was 50 to 300 nM; in that of `Nc1nc(O[C@H](c2ccc(Cl)cc2N2CCCC2=O)C(F)(F)F)cc(N2CCC3(CC2)CN[C@H](C(=O)O)C3)n1` [Example 33, (S)-8-(2-amino-6-((R)-1-(4-chloro-2-(2-oxopyrrolidin-1-yl)phenyl)-2,2,2-trifluoroethoxy)pyrimidin-4-yl)-2,8-diazaspiro[4.5]decane-3-carboxylic acid], 50 to 300 nM.
In the case of `Nc1nc(O[C@H](c2ccc(Cl)cc2-c2cccc(Cl)c2)C(F)(F)F)cc(N2CCC3(CC2)CN[C@H](C(=O)O)C3)n1` [Example 34a, (S)-8-(2-amino-6-((R)-1-(3′,5-dichloro-[1,1′-biphenyl]-2-yl)-2,2,2-trifluoroethoxy)pyrimidin-4-yl)-2,8-diazaspiro[4.5]decane-3-carboxylic acid], the IC50 under setting [2] is < 50 nM.
For `C=CC(=O)NCc1cccc(-c2cc(Cl)ccc2[C@@H](Oc2cc(N3CCC4(CC3)CN[C@H](C(=O)O)C4)nc(N)n2)C(F)(F)F)c1` [Example 34aa, (S)-8-(6-((R)-1-(3′-(acrylamidomethyl)-5-chloro-[1,1′-biphenyl]-2-yl)-2,2,2-trifluoroethoxy)-2-aminopyrimidin-4-yl)-2,8-diazaspiro[4.5]decane-3-carboxylic acid], under setting [1], the IC50 is < 50 nM.
Turning to `Nc1nc(O[C@H](c2ccc(Cl)cc2-c2cccc(C(=O)O)c2)C(F)(F)F)cc(N2CCC3(CC2)CN[C@H](C(=O)O)C3)n1` [Example 34ab, (S)-8-(2-amino-6-((R)-1-(3′-carboxy-5-chloro-[1,1′-biphenyl]-2-yl)-2,2,2-trifluoroethoxy)pyrimidin-4-yl)-2,8-diazaspiro[4.5]decane-3-carboxylic acid], the half-maximal inhibitory concentration (IC50) under setting [1] is 300 to 3000 nM.
For `NC(=O)c1cccc(-c2cc(Cl)ccc2[C@@H](Oc2cc(N3CCC4(CC3)CN[C@H](C(=O)O)C4)nc(N)n2)C(F)(F)F)c1` [Example 34ac, (S)-8-(2-amino-6-((R)-1-(3′-carbamoyl-5-chloro-[1,1′-biphenyl]-2-yl)-2,2,2-trifluoroethoxy)pyrimidin-4-yl)-2,8-diazaspiro[4.5]decane-3-carboxylic acid], the IC50 under setting [2] was < 50 nM.
